In patent US20250353833A1, “DPP9 BINDING COMPOUNDS” (UNIVERSITEIT ANTWERPEN, priority 2022, published 2025):
Structures can show the parent of a compound that is named as a salt.

Target: DPP9 (Homo sapiens (Human), UniProt Q86TI2)
Assay: DPP9 enzyme inhibition, IC50 measurement (Ala-Pro-pNA release)
Type: biochemical
Details: not given
Procedure: DPP4 was purified from human seminal plasma as described previously.^[3]
IC50 measurements. […] The Magellan software was used to process the data, which was then fitted using a non-linear fit model in GraFit 7. […] As a blank, the assay buffer was used instead of the enzyme. Screening measurements were carried out in duplo and IC50 values were determined in triplo with at least eight different inhibitor concentrations as described by Van Goethem et al.

DPP9, sequence (Q86TI2 whole entry): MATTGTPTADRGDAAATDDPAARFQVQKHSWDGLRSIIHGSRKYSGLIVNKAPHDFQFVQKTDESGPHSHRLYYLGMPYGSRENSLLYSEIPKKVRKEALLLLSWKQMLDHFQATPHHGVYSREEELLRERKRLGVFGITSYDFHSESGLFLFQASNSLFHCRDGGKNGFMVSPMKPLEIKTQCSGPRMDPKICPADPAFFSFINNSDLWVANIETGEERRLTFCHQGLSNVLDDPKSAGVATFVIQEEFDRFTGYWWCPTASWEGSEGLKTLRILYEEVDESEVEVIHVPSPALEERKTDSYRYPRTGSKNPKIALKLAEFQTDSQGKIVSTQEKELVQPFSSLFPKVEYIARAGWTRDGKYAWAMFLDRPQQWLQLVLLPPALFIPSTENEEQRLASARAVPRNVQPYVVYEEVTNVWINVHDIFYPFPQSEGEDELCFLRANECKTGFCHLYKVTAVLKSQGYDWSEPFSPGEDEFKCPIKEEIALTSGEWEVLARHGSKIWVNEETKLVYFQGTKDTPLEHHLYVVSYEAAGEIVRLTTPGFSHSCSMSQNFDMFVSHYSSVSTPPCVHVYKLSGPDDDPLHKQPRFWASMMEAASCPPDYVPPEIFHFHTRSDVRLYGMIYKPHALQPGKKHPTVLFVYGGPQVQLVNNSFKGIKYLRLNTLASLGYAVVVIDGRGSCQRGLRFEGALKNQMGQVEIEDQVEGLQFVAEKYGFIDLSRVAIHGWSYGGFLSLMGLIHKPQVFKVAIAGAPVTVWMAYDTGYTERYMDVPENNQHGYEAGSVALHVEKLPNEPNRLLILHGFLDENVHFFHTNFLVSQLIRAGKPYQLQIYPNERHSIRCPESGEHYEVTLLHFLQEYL

DPP9/8 selectivity index	SMILES
> 10	N#C[C@@H]1[C@@H]2C[C@@H]2CN1C(=O)CNC12CC3CC(CC(O)(C3)C1)C2 [Compound 5l, (1R,2S,5S)-3-((3-hydroxyadamantan-1-yl)glycyl)-3-azabicyclo[3.1.0]hexane-2-carbonitrile]

Same assay, conditions: Table 3; mean ± SD (n = 3); read-out: DPP9 IC50 ± SD

IC50 [nM]	SMILES
477 ± 28	CCCCNC12CC3CC(C1)CC(NCC(=O)N1Cc4ccccc4C1)(C3)C2 [Compound 25, 2-((3-(butylamino)adamantan-1-yl)amino)-1-(isoindolin-2-yl)ethan-1-one 2,2,2-trifluoroacetate]

Same assay, conditions: Table 3; selectivity index, DPP8 IC50 over DPP9 IC50

SI DPP9/8	SMILES
>21	CCCCNC12CC3CC(C1)CC(NCC(=O)N1Cc4ccccc4C1)(C3)C2 [Compound 25, 2-((3-(butylamino)adamantan-1-yl)amino)-1-(isoindolin-2-yl)ethan-1-one 2,2,2-trifluoroacetate]

Same assay, conditions: Table 4; selectivity index

SMILES	SI DPP9/DPP8
Cl.O=C(NC12CC3CC(CC(NCC(=O)N4Cc5ccc(F)cc5C4)(C3)C1)C2)c1ccc(-c2ccccc2)nc1 [Compound 89, N-((1s,3r,5R,7S)-3-((2-(5-fluoroisoindolin-2-yl)-2-oxoethyl)amino)adamantan-1-yl)-6-phenylnicotinamide hydrochloride]	28
Cl.O=C(NC12CC3CC(CC(NCC(=O)N4Cc5ccc(F)cc5C4)(C3)C1)C2)c1cnc2ccccc2c1 [Compound 99, N-((1s,3r,5R,7S)-3-((2-(5-fluoroisoindolin-2-yl)-2-oxoethyl)amino)adamantan-1-yl)quinoline-3-carboxamide hydrochloride]	13
Cl.O=C(NC12CC3CC(CC(NCC(=O)N4Cc5ccc(F)cc5C4)(C3)C1)C2)c1cccc(-c2ccccc2)c1 [Compound 101, N-((1s,3r,5R,7S)-3-((2-(5-fluoroisoindolin-2-yl)-2-oxoethyl)amino)adamantan-1-yl)-[1,1′-biphenyl]-3-carboxamide hydrochloride]	4
Cl.O=C(CNC12CC3CC(C1)CC(NS(=O)(=O)c1ccc(-c4ccccc4)cc1)(C3)C2)N1Cc2ccc(F)cc2C1 [Compound 102, N-((1s,3r,5R,7S)-3-((2-(5-fluoroisoindolin-2-yl)-2-oxoethyl)amino)adamantan-1-yl)-[1,1′-biphenyl]-4-sulfonamide hydrochloride]	4
COC(=O)c1ccc(-c2ccc(C(=O)NC34CC5CC(CC(NCC(=O)N6Cc7ccc(F)cc7C6)(C5)C3)C4)cc2)cc1 [Compound 104, Methyl 4′-((-3-((2-(5-fluoroisoindolin-2-yl)-2-oxoethyl)amino)adamantan-1-yl)carbamoyl)-[1,1′-biphenyl]-4-carboxylate hydrochloride]	46
O=C(CNC12CC3CC(C1)CC(Nc1ccc(-c4ccccc4)nc1)(C3)C2)N1Cc2ccc(F)cc2C1 [Compound 109, 1-(5-fluoroisoindolin-2-yl)-2-((-3-((6-phenylpyridin-3-yl)amino)adamantan-1-yl)amino)ethan-1-one dihydrochloride]	2
O=C(CCCCC1SCC2NC(=O)NC21)NCCOCCOCCOCCNC(=O)NC12CC3CC(CC(NCC(=O)N4Cc5cc(F)c(F)cc5C4)(C3)C1)C2 (stereo not drawn) [Compound 115, N-(1-((3-((2-(5,6-difluoroisoindolin-2-yl)-2-oxoethyl)amino)adamantan-1-yl)amino)-1-oxo-5,8,11-trioxa-2-azatridecan-13-yl)-5-(2-oxohexahydro-1H thieno[3,4-d]imidazol-4-yl)pentanamide]	7
CC[N+]1=C(/C=C/C=C2/N(CCCCCC(=O)NC34CC5CC(CC(NCC(=O)N6Cc7ccc(F)cc7C6)(C5)C3)C4)c3ccc(S(=O)(=O)O)cc3C2(C)C)C(C)(C)c2cc(S(=O)(=O)[O-])ccc21 [Compound 120, 1-ethyl-2-((E)-3-((E)-1-(6-((-3-((2-(5-fluoroisoindolin-2-yl)-2-oxoethyl)amino)adamantan-1-yl)amino)-6-oxohexyl)-3,3-dimethyl-5-sulfoindolin-2-ylidene)prop-1-en-1-yl)-3,3-dimethyl-3H-indol-1-ium-5-sulfonate]	21

Further lines, results first:

SI DPP9/DPP8	SMILES
54	Cl.O=C(NC12CC3CC(CC(NCC(=O)N4Cc5ccc(F)cc5C4)(C3)C1)C2)c1ccc(-c2ccccc2)cc1 [Compound 87, N-((1s,3r,5R,7S)-3-((2-(5-fluoroisoindolin-2-yl)-2-oxoethyl)amino)adamantan-1-yl)-[1,1′-biphenyl]-4-carboxamide hydrochloride]
27	Cl.O=C(NC12CC3CC(CC(NCC(=O)N4Cc5ccc(F)cc5C4)(C3)C1)C2)c1ccc(-c2cccs2)cc1 [Compound 92, N-((1s,3r,5R,7S)-3-((2-(5-fluoroisoindolin-2-yl)-2-oxoethyl)amino)adamantan-1-yl)-4-(thiophen-2-yl)benzamide hydrochloride]
59	Cl.O=C(NC12CC3CC(CC(NCC(=O)N4Cc5ccc(F)cc5C4)(C3)C1)C2)c1ccc(-c2ccc(F)cc2)cc1 [Compound 93, 4′-fluoro-N-((1s,3r,5R,7S)-3-((2-(5-fluoroisoindolin-2-yl)-2-oxoethyl)amino)adamantan-1-yl)-[1,1′-biphenyl]-4-carboxamide hydrochloride]
26	Cl.O=C(NC12CC3CC(CC(NCC(=O)N4Cc5ccc(F)cc5C4)(C3)C1)C2)c1ccc(-c2ccccc2F)cc1 [Compound 94, 2′-fluoro-N-((1s,3r,5R,7S)-3-((2-(5-fluoroisoindolin-2-yl)-2-oxoethyl)amino)adamantan-1-yl)-[1,1′-biphenyl]-4-carboxamide hydrochloride]
12	Cl.N#Cc1ccc(C(=O)NC23CC4CC(CC(NCC(=O)N5Cc6ccc(F)cc6C5)(C4)C2)C3)cc1 [Compound 96, 4-cyano-N-((1s,3r,5R,7S)-3-((2-(5-fluoroisoindolin-2-yl)-2-oxoethyl)amino)adamantan-1-yl)benzamide hydrochloride]
11	Cl.O=C(NC12CC3CC(CC(NCC(=O)N4Cc5ccc(F)cc5C4)(C3)C1)C2)c1ccc(-c2ccccc2)s1 [Compound 97, N-((1s,3r,5R,7S)-3-((2-(5-fluoroisoindolin-2-yl)-2-oxoethyl)amino)adamantan-1-yl)-5-phenylthiophene-2-carboxamide hydrochloride]
22	Cl.O=C(NC12CC3CC(CC(NCC(=O)N4Cc5ccc(F)cc5C4)(C3)C1)C2)c1ccc(-c2cccs2)nc1 [Compound 100, N-((1s,3r,5R,7S)-3-((2-(5-fluoroisoindolin-2-yl)-2-oxoethyl)amino)adamantan-1-yl)-6-(thiophen-2-yl)nicotinamide hydrochloride]
25	COC(=O)c1csc(-c2ccc(C(=O)NC34CC5CC(CC(NCC(=O)N6Cc7ccc(F)cc7C6)(C5)C3)C4)cc2)c1.Cl [Compound 103, Methyl 5-(4-((-3-((2-(5-fluoroisoindolin-2-yl)-2-oxoethyl)amino)adamantan-1-yl)carbamoyl)phenyl)thiophene-3-carboxylate hydrochloride]
27	Cl.O=C(NC12CC3CC(CC(NCC(=O)N4Cc5ccc(F)cc5C4)(C3)C1)C2)c1ccc(-c2ccc(O)cc2)cc1 [Compound 105, N-(-3-((2-(5-fluoroisoindolin-2-yl)-2-oxoethyl)amino)adamantan-1-yl)-4′-hydroxy-[1,1′-biphenyl]-4-carboxamide hydrochloride]

Same assay, conditions: read-out: IC50 DPP9

IC50 [nM]	SMILES
1	COC(=O)c1ccc(-c2ccc(C(=O)NC34CC5CC(CC(NCC(=O)N6Cc7ccc(F)cc7C6)(C5)C3)C4)cc2)cc1 [Compound 104, Methyl 4′-((-3-((2-(5-fluoroisoindolin-2-yl)-2-oxoethyl)amino)adamantan-1-yl)carbamoyl)-[1,1′-biphenyl]-4-carboxylate hydrochloride]
